The text below walks through data of ChEMBL document CHEMBL5150033, “Synthesis, evaluation and mechanism exploration of 2-(N-(3-nitrophenyl)-N-phenylsulfonyl)aminoacetohydroxamic acids as novel urease inhibitors” (Bioorg Med Chem Lett, 2022).

What is called IC50 is the concentration that gives 50% inhibition. Low values mean inhibition by little substance, high ones a need for much substance. In general, Kd refers to the concentration at which binding is half-saturated. By Ki is commonly meant a dissociation constant, usually derived from enzyme kinetics or from competition with a known ligand.

One experiment has as its system HepG2. Kind of experiment: Antiproliferative activity against human HepG2 cells assessed as reduction in cell viability at 250 ug/ml by MTT assay relative to control. Type of experiment: functional. The note with it: dose 250 µg/ml. (Tetrazolium dyes change colour on reduction, which living cells bring about.)
The next experiment relates to SGC-7901. Kind of experiment: Antiproliferative activity against human SGC-7901 cells assessed as reduction in cell viability at 250 ug/ml by MTT assay relative to control. In kind it is functional. The note with it: dose 250 µg/ml.
Another experiment relates to K562. Put plainly: Antiproliferative activity against human K562 cells assessed as reduction in cell viability at 250 ug/ml by MTT assay relative to control. Type of experiment: functional. As to conditions: dose 250 µg/ml.
The target of experiment [1] is T1, Urease subunit alpha/Urease subunit beta (Helicobacter pylori (strain ATCC 700392 / 26695) (Campylobacterpylori), UniProt P69996). Kind of experiment: Inhibition of Helicobacter pylori urease. Type of experiment: protein-complex assay.
For experiment [2], the target named is T2, Urease subunit alpha/Urease subunit beta (Helicobacter pylori (strain ATCC 700392 / 26695) (Campylobacterpylori)) (UniProt P69996+P14916). Kind of experiment: Potency index, ratio of acetohydroxamic acid IC50 to test compound IC50 for inhibition of Helicobacter pylori urease. Type of experiment: protein-complex assay.
The target in experiment [3] is T1, Urease subunit alpha/Urease subunit beta. Put plainly: Binding affinity to Helicobacter pyroli urease assessed as dissociation constant by surface plasmon resonance assay. In kind it is protein-complex assay.
For experiment [4] the target is unchanged. Put plainly: Mixed type inhibition of Helicobacter pyroli urease assessed as dissociation constant for EI complex by microplate reader analysis. Type of experiment: protein-complex assay.
Experiment [5] has as its target T2, Urease subunit alpha/Urease subunit beta (Helicobacter pylori (strain ATCC 700392 / 26695) (Campylobacterpylori)). Kind of experiment: Inhibition of Helicobacter pyroli urease at 100 ug/ml […]. Type of experiment: protein-complex assay. The note with it: dose 100.0 µg/ml, time <= 120.0 min, TDE = time-dependent effect. (In general: SPR reads the build-up and loss of mass on a sensor chip optically.)

Experiment [6] shares this target. Kind of experiment: Inhibition of Helicobacter pyroli urease assessed as maximum inhibition at 100 ug/ml measured after 50 mins […]. In kind it is protein-complex assay. As to conditions: dose 100.0 µg/ml.
The target of experiment [7] is T1, Urease subunit alpha/Urease subunit beta. Kind of experiment: Mixed type inhibition of Helicobacter pyroli urease assessed as dissociation constant for ESI complex by microplate reader analysis. In kind it is protein-complex assay.

Structures are written as SMILES. Activity calls are given as the source filed them. The rule behind the calls is not given here.

T2 sequence (P14916 whole entry, looked up): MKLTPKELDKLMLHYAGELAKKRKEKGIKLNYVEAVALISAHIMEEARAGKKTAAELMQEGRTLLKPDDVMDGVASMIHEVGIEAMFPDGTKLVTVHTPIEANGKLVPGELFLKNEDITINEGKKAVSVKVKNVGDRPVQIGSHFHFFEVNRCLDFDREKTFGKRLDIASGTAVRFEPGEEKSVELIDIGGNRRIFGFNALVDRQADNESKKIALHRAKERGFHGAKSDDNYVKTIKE
T2 sequence (P69996 whole entry, looked up): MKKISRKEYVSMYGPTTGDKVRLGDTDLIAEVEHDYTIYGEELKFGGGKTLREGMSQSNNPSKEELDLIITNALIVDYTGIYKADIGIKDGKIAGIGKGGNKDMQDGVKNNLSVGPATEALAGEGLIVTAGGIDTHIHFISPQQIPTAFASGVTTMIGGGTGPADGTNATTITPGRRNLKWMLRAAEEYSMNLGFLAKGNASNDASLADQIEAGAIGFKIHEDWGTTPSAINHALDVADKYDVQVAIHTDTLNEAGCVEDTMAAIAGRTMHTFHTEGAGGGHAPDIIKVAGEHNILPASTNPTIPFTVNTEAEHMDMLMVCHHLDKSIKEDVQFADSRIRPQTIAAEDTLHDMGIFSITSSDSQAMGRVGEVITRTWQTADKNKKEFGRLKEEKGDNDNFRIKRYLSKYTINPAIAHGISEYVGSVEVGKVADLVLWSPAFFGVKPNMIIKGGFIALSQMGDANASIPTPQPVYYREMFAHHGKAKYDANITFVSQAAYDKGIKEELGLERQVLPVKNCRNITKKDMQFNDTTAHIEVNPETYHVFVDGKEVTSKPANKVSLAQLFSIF
T1 sequence (P69996 whole entry): as the sequence (P69996 whole entry, looked up) above
T1 sequence (P14916 whole entry, further chain): as the sequence (P14916 whole entry, looked up) above

Regarding `O=C(CN(c1cccc([N+](=O)[O-])c1)S(=O)(=O)c1ccc(F)cc1)NO`, the values for the Activity in the experiment with HepG2, with SGC-7901 and in the experiment with K562 were 91%, 90% and 92%, respectively. For the same molecule, the IC50 in experiment [1] came to 3.33 µM.

With `O=C(CN(c1cccc([N+](=O)[O-])c1)S(=O)(=O)c1ccccc1Cl)NO`, the Activity stood at 93% with HepG2, 90% in the experiment with SGC-7901 and 91% in the experiment on K562. In addition, the IC50 in experiment [1] came to 22 µM.

On to `O=C(CN(c1cccc([N+](=O)[O-])c1)S(=O)(=O)c1cc(Cl)ccc1Cl)NO`, for which the Activity in the experiment with HepG2 was 80%; in the experiment on SGC-7901 it was 81%; in the experiment with K562, 84%. The molecule also returned an IC50 in [1] of 27.5 µM.

As to `Cc1cc(C)c(S(=O)(=O)N(CC(=O)NO)c2cccc([N+](=O)[O-])c2)c(C)c1`, the Activity in the experiment on HepG2 came out at 87%; in the experiment on SGC-7901 it was 85%; with K562, 94%. In [1], this molecule came in with an IC50 of 96.4 µM.

Consider `O=C(CN(c1cccc([N+](=O)[O-])c1)S(=O)(=O)c1ccccc1F)NO`, for which the figures for the Activity in the experiment with HepG2, in the experiment with SGC-7901 and in the experiment on K562 were 80%, 92% and 87%, respectively. The molecule also had an IC50 in experiment [1] of 6.9 µM.

Consider `O=C(CN(c1cccc([N+](=O)[O-])c1)S(=O)(=O)c1ccc(Cl)cc1)NO`, for which the Activity in the experiment with HepG2 was 86%; in the experiment with SGC-7901, 89%; with K562, 88%. Moreover, half-maximal inhibition in [1] (IC50) was put at 1.75 µM.

Turning to `O=C(CN(c1cccc([N+](=O)[O-])c1)S(=O)(=O)c1ccc(C(F)(F)F)cc1)NO`, the Activity with HepG2 came out at 93%; in the experiment with SGC-7901, 90%; in the experiment with K562 it was 87%. The molecule further returned a half-maximal inhibitory concentration (IC50) in [1] of 9.57 µM.

As to `O=C(CN(c1cccc([N+](=O)[O-])c1)S(=O)(=O)c1ccccc1)NO`, the Activity with HepG2 was 83%; with SGC-7901, 79%; with K562, 76%. Moreover, in experiment [1], inhibition was half-maximal at 2.41 µM (IC50).

`O=C(CN(c1cccc([N+](=O)[O-])c1)S(=O)(=O)c1cc(F)ccc1F)NO`: the Activity in the experiment on HepG2 is 89%; in the experiment with SGC-7901, 92%; in the experiment on K562, 88%. In [1], this molecule came in with an IC50 of 16.4 µM.

On to `Cc1ccc(S(=O)(=O)N(CC(=O)NO)c2cccc([N+](=O)[O-])c2)cc1`, for which the Activity worked out at 80% in the experiment with HepG2, 84% in the experiment with SGC-7901 and 86% in the experiment with K562. This molecule came in with an IC50 in experiment [1] of 5.91 µM.

As for `O=C(CN(c1cccc([N+](=O)[O-])c1)S(=O)(=O)c1cccc(F)c1)NO`, the Ratio IC50 in [2] was 35. The Activity in the experiment on HepG2 was determined as 89%; with SGC-7901, 90%; in the experiment on K562 it was 93%. In experiment [1], this molecule showed a concentration for half-maximal inhibition (IC50) of 0.74 µM.

Take `Cc1ccccc1S(=O)(=O)N(CC(=O)NO)c1cccc([N+](=O)[O-])c1`: the Activity in the experiment on HepG2 came to 87%; in the experiment on SGC-7901, 90%; in the experiment with K562 it was 90%. Besides, the IC50 in [1] was found to be 7.1 µM.

Consider `O=C(CN(c1cccc([N+](=O)[O-])c1)S(=O)(=O)c1ccc(Br)cc1)NO`, for which the Kd in [3] stood at 0.00034 µM. Besides, the Ratio IC50 in experiment [2] stood at 200. Also, the Ki in experiment [4] is 0.065 µM; in experiment [7], 1.2 µM. The inhibition entry in experiment [5] is “Tde”. The results for the Activity in the experiment on HepG2, in the experiment on SGC-7901 and in the experiment on K562 were 91%, 86% and 87%, respectively. Besides, the inhibition entry in experiment [6] is “Active”. In experiment [1], this molecule had an IC50 of 0.13 µM.

With `CC(=O)NO` [ACETOHYDROXAMIC ACID], the Activity in the experiment on HepG2 was found to be 76%; in the experiment with SGC-7901 it was 72%; with K562, 64%. In [1], the IC50 stood at 26.3 µM.
